What was measured:
Type in all cases: functional
Cavia porcellus [1] = organism: Cavia porcellus; assay: In vitro NO ([…]) release by nitrite quanititation using Griess reaction
Cavia porcellus [2] = organism: Cavia porcellus; assay: In vitro calcium channel modulating activity in guinea pig left atrium (GPLA); conditions: Cardiac atrium
Cavia porcellus [3] = organism: Cavia porcellus; assay: In vitro NO ([…]) release by nitrite quanititation using Griess reaction without N-acetyl-cysteamine
Cavia porcellus [4] = organism: Cavia porcellus; assay: In vitro NO ([…]) release by nitrite quanititation using Griess reaction in presence of N-acetyl-cysteamine

Compound | % of NO release (Cavia porcellus [1]) | IC50 (Cavia porcellus [2]) | % of NO release (Cavia porcellus [3]) | % of NO release (Cavia porcellus [4])
CC1=NC(C)=C([N+](=O)[O-])[C@@H](c2ccccc2C(F)(F)F)/C1=C(\O)OCCO[N+](=O)[O-] | 1.09 |  |  | 
CC1=NC(C)=C([N+](=O)[O-])[C@H](c2ccccc2C(F)(F)F)/C1=C(\O)OCCO[N+](=O)[O-] | 2.7 | 16 µM |  | 
O=[N+]([O-])OCC(CO[N+](=O)[O-])O[N+](=O)[O-] [NITROGLYCERIN] |  |  | 0.18 | 5.3

From ChEMBL document CHEMBL1135832, “Syntheses, calcium channel agonist-antagonist modulation activities, nitric oxide release, and voltage-clamp studies of 2-nitrooxyethyl 1,4-dihydro- 2,6-dimethyl-3-nitro-4-(2-trifluoromethylphenyl)pyridine-5-carboxylate enantiomers” (J Med Chem, 2002)
